Source: US12221459B2, “Cancer treatment with (2,2-bishydroxymethyl) methylenecyclopropane nucleotides” (MEDIVIR AB, priority 2018, dated 2025)
Read-outs that look alike come from different tables or passages of the source.

Columns and labels:
[1] = test system: MV4-11 cells, human B-myelomonocytic leukemia; experiment: Leukemia cell line activity assay (Cell Counting Kit-8, 5 days), MV4-11
Method: (§1) Compounds of the invention were evaluated for activity against the leukemia cell lines THP-1, EOL-1 and MV4-11, using the following assay:
(§2) Test compounds were made up to 10 mM stock solution in DMSO
(§3) Leukemia cells (THP-1, EOL-1 and MV4-11) were grown in a cell culture flask 75 cm^2 with approximately 100 ml complete cell medium. The cells were counted using a Scepter-hand held automated cell counter, using 60 μm sensors (Millipore) and suspended in complete cell medium to 2×10^5 cells. 100 μl of the cell suspension were seeded to all wells (2×10^4 cells/well).
(§4) The compounds were tested in twelve concentrations, 10-fold serial dilutions, 50 μM-5×10^−10 μM.
(§5) 100 μl from a compound dilution plate were transferred to the cell assay plate=200 μl/well total volume and incubated for 5 days, at 37° C., 5% CO2 incubator.
(§6) After 5 days, 10l of KIT-8 was added and the culture was incubated for 3-4 hours, at 37° C., 5% CO2 incubator.
(§7) Plate were read in the spectrophotometer at wavelength 450 nm with a reference filter of 620 nm.
(§8) CC50 values are calculated by plotting the degree of inhibition (compared to the vehicle ctrl) against the logarithm of the compound concentration. Result values in the dilution series are fitted to a 4-parameter sigmoidal dose-response curve described by the expression: F(x)=D+(A−D)/(1+(x/C)^B) where: • A=Minimum • B=Slope. • C=Inflection point. The inflection point is defined as the point on the curve where the curvature changes direction or signs. • D=Maximum • F=fraction inhibition

EOL-1 (human) = experiment: Leukemia cell line activity assay (Cell Counting Kit-8, 5 days), EOL-1; conditions: read-out: EOL.1 CC50
Method: as §1, §2, §3, §4, §5, §6, §7, §8

[2] = test system: THP-1 (human acute monocytic leukemia); experiment: Leukemia cell line activity assay (Cell Counting Kit-8, 5 days), THP-1
Method: as §1, §2, §3, §4, §5, §6, §7, §8

[3] = Structural integrity of triester phosphoroalaninates by LC MS over 22-29 days; assay type: physicochemical
Method: Instability of Triester Phosphoroalaninates
Intermediate compounds I-19 d2 and I-25 synthesised above are triesterphosphoro-alaninates resembling the prior art compound described in Yan et al, J Med Chem 2005 48 91-99:
The structural integrity of these model compounds was assessed by LC MS over a 22-29 day period, as follows: […]

[4] = Homo sapiens, MV4-11, 120 h, read-out: MV4-11 CC50, MV4-11 cells, 5 days incubation
[5] = Homo sapiens, THP-1, 120 h, read-out: THP-1 CC50, THP-1 cells, 5 days incubation
[6] = read-out: MV4-11 CC50, MV4-11 cells, 5 days incubation
[7] = read-out: THP-1 CC50, THP-1 cells, 5 days incubation

`CCC(CC)COC(=O)[C@H](Cc1ccccc1)N[P@](=O)(OCC1(COC(=O)C(C)C)C/C1=C/n1cnc2c(=O)[nH]c(N)nc21)Oc1ccccc1` (single isomer, unassigned) [Example 20-2] gave a CC50 [1, 4] of 380 nM, a CC50 (EOL-1 (human); Homo sapiens, EOL1, 120 h) of 3600 nM and a CC50 [2, 5] of 900 nM.

Work on `CCCC(=O)OCC1(CO[P@@](=O)(N[C@@H](C)C(=O)OCC(CCC)CCC)Oc2ccccc2)C/C1=C/n1ccc(N)nc1=O` (single isomer, unassigned) [Example 32-1] yielded a CC50 [1, 6] of 180 nM, a CC50 (EOL-1 (human); Homo sapiens, EOL1, 120 h) of 59 nM and a CC50 [2, 7] of 190 nM.

Work on `CCCC(=O)OCC1(CO[P@@](=O)(N[C@@H](C)C(=O)OCC(CCC)CCC)Oc2ccccc2)C/C1=C/n1ccc(N)nc1=O` (single isomer, unassigned) [Example 45-1] yielded a CC50 [1, 6] of 180 nM, a CC50 (EOL-1 (human); EOL-1 cells, 5 days incubation) of 59 nM and a CC50 [2, 7] of 190 nM.

For `CCC[C@H](C)OC(=O)[C@H](C)N[P@](=O)(OC[C@]1(CO)C/C1=C/n1cnc2c(=O)[nH]c(N)nc21)Oc1ccc(Br)cc1` (single isomer, unassigned) [Intermediate I-19 d2], the LCMS purity ([3]; Day 0) was 96.86%, the LCMS purity ([3]; Day 5) was 94.32% and the LCMS purity ([3]; Day 14) was 88.76%. It also gave an LCMS purity ([3]; Day 22) of 73.76%.

Work on `Nc1nc2c(ncn2/C=C2/CC2(CO)CO)c(=O)[nH]1` [Cyclopropavir, 2,2-bis-(hydroxymethyl) cyclopropylidene methyl guanine, reference compound] yielded a CC50 ([1]; Homo sapiens, MV4-11, 120 h, read-out: MV4-11 CC50) of 11000 nM, a CC50 (EOL-1 (human); Homo sapiens, EOL1, 120 h) of 11000 nM and a CC50 ([2]; Homo sapiens, THP-1, 120 h, read-out: THP-1 CC50) of 5100 nM.

With `CCCC(CCC)COC(=O)[C@H](C)N[P@](=O)(OC[C@@]1(COC(=O)[C@@H](N)C(C)C)C/C1=C/n1cnc2c(=O)[nH]c(N)nc21)Oc1ccccc1` [Example 1f-1, (S)-((S,Z)-2-((2-Amino-6-oxo-1H-purin-9(6H)-yl)methylene)-1-((((S)-(((S)-1-oxo-1-((2-propylpentyl)oxy)propan-2-yl)amino)(phenoxy)phosphoryl)oxy)methyl)cyclopropyl)methyl 2-amino-3-methylbutanoate] the CC50 [1, 4] was 460 nM, the CC50 (EOL-1 (human); Homo sapiens, EOL1, 120 h) was 120 nM and the CC50 [2, 5] was 670 nM.

`CCC[C@H](C)OC(=O)[C@H](C)N[P@](=O)(OC[C@@]1(COC(=O)C(C)C)C/C1=C/n1cnc2c(=O)[nH]c(N)nc21)Oc1ccccc1` [Example 6-2, ((S,Z)-2-((2-amino-6-oxo-1H-purin-9(6H)-yl)methylene)-1-((((S)-(((S)-1-oxo-1-((S)-pentan-2-yloxy)propan-2-yl)amino)(phenoxy)phosphoryl)oxy)methyl)cyclopropyl)methyl isobutyrate] gave a CC50 [1, 4] of 430 nM, a CC50 (EOL-1 (human); Homo sapiens, EOL1, 120 h) of 190 nM and a CC50 [2, 5] of 740 nM.

In the case of `CCCC(=O)OC[C@]1(CO[P@@](=O)(N[C@@H](C)C(=O)OCC(CCC)CCC)Oc2ccccc2)C/C1=C/n1cnc2c(=O)[nH]c(N)nc21` [Example 11-1, ((S,Z)-2-((2-Amino-6-oxo-1H-purin-9(6H)-yl)methylene)-1-((((S)-(((S)-1-oxo-1-((2-propylpentyl)oxy)propan-2-yl)amino)(phenoxy)phosphoryl)oxy)methyl)cyclopropyl)methyl butyrate], the CC50 [1, 4] is reported as 71 nM, the CC50 (EOL-1 (human); Homo sapiens, EOL1, 120 h) is reported as 140 nM and the CC50 [2, 5] is reported as 190 nM.

With `CCCC(=O)OC[C@]1(CO[P@@](=O)(N[C@@H](C)C(=O)O[C@@H](C)CCC)Oc2ccc(Br)cc2)C/C1=C/n1cnc2c(=O)[nH]c(N)nc21` [Example 12-1, ((S,Z)-2-((2-Amino-6-oxo-1H-purin-9(6H)-yl)methylene)-1-((((S)-(4-bromophenoxy)(((S)-1-oxo-1-((S)-pentan-2-yloxy)propan-2-yl)amino)phosphoryl)oxy)methyl)cyclopropyl)methyl butyrate] the CC50 (EOL-1 (human); Homo sapiens, EOL1, 120 h) was 170 nM and the CC50 [2, 5] was 290 nM.

In the case of `CCCCCCCCCCCCCCCCCC(=O)OCC1(CO[P@@](=O)(N[C@@H](C)C(=O)O[C@@H](C)CCC)Oc2ccccc2)C/C1=C/n1cnc2c(=O)[nH]c(N)nc21` (stereo partly drawn) [Example 24, ((Z)-2-((2-amino-6-oxo-1,6-dihydro-9H-purin-9-yl)methylene)-1-((((S)-(((S)-1-oxo-1-(((S)-pentan-2-yl)oxy)propan-2-yl)amino)(phenoxy)phosphoryl)oxy)methyl)cyclopropyl)methyl stearate], the CC50 [1, 4] is reported as 2100 nM and the CC50 [2, 5] is reported as 3800 nM.

`CCC(CC)COC(=O)[C@H](Cc1ccccc1)N[P@](=O)(OCC1(COC(=O)C(C)C)C/C1=C/n1ccc(N)nc1=O)Oc1ccccc1` (stereo partly drawn) [Example 25-2, 2-ethylbutyl((S)-(((Z)-2-((4-amino-2-oxopyrimidin-1 (2H)-yl)methylene)-1-((isobutyryloxy)methyl)cyclopropyl)methoxy)(phenoxy)phosphoryl)-L-phenylalaninate] showed a CC50 [1, 6] of 86 nM, a CC50 (EOL-1 (human); EOL-1 cells, 5 days incubation) of 100 nM and a CC50 [2, 7] of 410 nM.

Work on `CCCC(=O)OCC1(CO[P@@](=O)(N[C@@H](C)C(=O)O[C@@H](C)CCC)Oc2ccccc2)C/C1=C/n1cnc2c(=O)[nH]c(N)nc21` (stereo partly drawn) [Example 30-1, ((Z)-2-((2-amino-6-oxo-1,6-dihydro-9H-purin-9-yl)methylene)-1-((((S)-(((S)-1-oxo-1-(((S)-pentan-2-yl)ox)propan-2-yl)amino)(phenoxy)phosphoryl)oxy)methyl)cyclopropyl)methyl butyrate] yielded a CC50 [1, 4] of 430 nM, a CC50 (EOL-1 (human); Homo sapiens, EOL1, 120 h) of 940 nM and a CC50 [2, 5] of 460 nM.

`CCC(CC)COC(=O)[C@H](CC(C)C)N[P@](=O)(OCC1(COC(=O)C(C)C)C/C1=C/n1ccc(N)nc1=O)Oc1ccccc1` (stereo partly drawn) [Example 34-2, 2-ethylbutyl((S)-(((Z)-2-((4-amino-2-oxopyrimidin-1(2H)-yl)methylene)-1-((isobutyryloxy)methyl)cyclopropyl)methoxy)(phenoxy)phosphoryl)-L-leucinate] showed a CC50 [1, 6] of 440 nM, a CC50 (EOL-1 (human); EOL-1 cells, 5 days incubation) of 170 nM and a CC50 [2, 7] of 340 nM.

In the case of `CCCC(CCC)COC(=O)[C@H](C)N[P@](=O)(OCC1(COC(=O)C(C)(C)C)C/C1=C/n1cnc2c(=O)[nH]c(N)nc21)Oc1ccccc1` (stereo partly drawn) [Example 38, ((Z)-2-((2-amino-6-oxo-1,6-dihydro-9H-purin-9-yl)methylene)-1-((((S)-(((S)-1-oxo-1-((2-propylpentyl)oxy)propan-2-yl)amino)(phenoxy)phosphoryl)ox)methyl)cyclopropyl)methyl pivalate], the CC50 [1, 4] is reported as 310 nM, the CC50 (EOL-1 (human); Homo sapiens, EOL1, 120 h) is reported as 210 nM and the CC50 [2, 5] is reported as 190 nM.

With `CC(C)OC(=O)[C@H](C)N[P@](=O)(OC[C@@]1(CO)C/C1=C/n1cnc2c(=O)[nH]c(N)nc21)Oc1ccc(C2(C)CC2)cc1` [Intermediate I-25, (S)-Isopropyl 2-(((S)-(((S,Z)-2-((2-amino-6-oxo-1H-purin-9(6H)-yl)methylene)-1-(hydroxymethyl)cyclopropyl)methoxy)(4-(1-methylcyclopropyl)phenoxy)phosphoryl)amino)propanoate] the LCMS purity ([3]; Day 0) was 95.56%, the LCMS purity ([3]; Day 5) was 88.14% and the LCMS purity ([3]; Day 14) was 82.67%. For the same compound, the LCMS purity ([3]; Day 22) was 77.76% and the LCMS purity ([3]; Day 29) was 72.84%.

“(S)-(S)-Pentan-2-yl 2-(((S)-(((S,Z)-1-(acetoxymethyl)-2-((2-amino-6-oxo-1H-purin-9(6H)-yl)methylene)cyclopropyl)methoxy)(4-bromophenoxy)phosphoryl)amino) [Example 8-1]” gave a CC50 (EOL-1 (human); EOL-1 cells, 5 days incubation) of 340 nM and a CC50 [2, 7] of 260 nM.
